“Also recorded” adds a separate entry of the source.
Columns and labels:
hNaV1.5 = experiment: Whole-cell patch-clamp, block of NaV1.5 current; type: cell-based, human; conditions: CHO cells
Source text: (§1) We, therefore, aimed at testing the pharmacological activity of sCm39 on a battery of various potassium and sodium ion channels. Among the tested channels were six members of human voltage-gated K^+ (hKV) channels from Shaker family, hKV1.1-hKV1.6 (Figure 3A–F) and three members of Ca^2+-activated potassium channel; hKCa2.2 (SK2, Figure 3I), the small-conductance Ca^2+-activated channel; hKCa3.1 (IKCa1, SK4. Figure 3J), the intermediate-conductance Ca^2+-activated channel expressed in T lymphocytes; and mKCa1.1 (BK, Slo1, MaxiK, Figure 3H), the large-conductance voltage- and Ca^2+-activated channel of mice. In addition, we also screened the effect of Cm39 on hKV11.1 (hERG1, Figure 3G), a voltage-gated cardiac K^+ channel, and two human voltage-gated sodium (hNaV) channels, hNaV1.4 (Figure 3K) and hNaV1.5 (Figure 3L), expressed in skeletal and cardiac muscles, respectively. These ion channels were heterologously expressed in the CHO or HEK cell lines except for KV1.3. Human peripheral T lymphocytes. They were stimulated with Phytohemagglutinin A (PHA) to increase the KV1.3 channel expression, and Ca^2+-free intracellular solution was used to avoid KCa3.1 channel activation. […]
(§2) Those plasmids which lack a fluorescent tag were co-transfected with a plasmid encoding GFP. […] Generally, currents were recorded 24 to 48 h post transfection. […]

hKV1.4 = experiment: Whole-cell patch-clamp, block of KV1.4 current; type: cell-based, human; conditions: CHO cells
Source text: as §1, §2

## CC[C@H](C)[C@@H]1NC(=O)[C@H](C)NC(=O)[C@H](C)NC(=O)[C@H](CCCCN)NC(=O)[C@@H]2CSSC[C@@H](C(=O)N[C@@H](Cc3ccc(O)cc3)C(=O)N[C@@H](Cc3ccc(O)cc3)C(=O)O)NC(=O)[C@H](CCCCN)NC(=O)[C@@H]3CSSC[C@H](NC(=O)[C@H](CCC(=O)O)NC(=O)[C@H](CO)NC(=O)[C@H](CO)NC(=O)[C@H](CO)NC(=O)[C@H](CCCCN)NC(=O)[C@@H](NC(=O)[C@H](CCCCN)NC(=O)[C@H](Cc4c[nH]cn4)NC(=O)[C@H](CC(N)=O)NC(=O)[C@@H](NC(=O)[C@H](Cc4ccccc4)NC(=O)[C@@H](N)[C@@H](C)O)[C@@H](C)CC)CSSC[C@H](NC(=O)[C@H](CCCCN)NC(=O)CNC(=O)[C@H](CO)NC(=O)[C@H](C)NC(=O)[C@H](CCCNC(=N)N)NC(=O)CNC1=O)C(=O)N[C@@H]([C@@H](C)CC)C(=O)N[C@@H](CC(N)=O)C(=O)N[C@@H](CO)C(=O)N[C@@H]([C@@H](C)O)C(=O)N3)C(=O)N[C@@H](CC(C)C)C(=O)N1CCC[C@H]1C(=O)N[C@@H](C)C(=O)N2 [Cm39]
hNaV1.5; 1 μM
  inhibition (in words): does not inhibit; also recorded: did not show any effect
hNaV1.5; 1 µM, 3−5 min, n = 3−5
  decrease in current: < 3%
hKV1.4; 1 μM
  inhibition (in words): does not inhibit; also recorded: did not show any effect
hKV1.4; 1 µM, 3−5 min, n = 3−5
  decrease in current: < 3%

— paper PMC9866218, “Characterization and Chemical Synthesis of Cm39 (α-KTx 4.8): A Scorpion Toxin That Inhibits Voltage-Gated K^+ Channel KV1.2 and Small- and Intermediate-Conductance Ca^2+-Activated K^+ Channels KCa2.2 and KCa3.1” (Toxins, 2023)
